The values below come from patent publication US20140093489A1, “NUTRITIONAL SUPPLEMENTS FOR EYE HEALTH AND RELATED METHODS” (priority 2012, published 2014).

Read-outs that look alike come from different tables or passages of the source.

The nature of data set [1]: Coenzyme Q supplementation effect on serum vitamin C. In kind it is in vivo. An excerpt: FIG. 1. Coenzyme Q supplementation effect on serum vitamin C (μg/ml). Subjects (N=12) were given coenzyme Q for 2 weeks with blood taken pre and post intervention. Values are means±SD.
Coenzyme Q has antioxidant properties. This molecule is found in the diet and is made by the body. Body production declines with age. Absorption of orally ingested coenzyme Q can be low, though certain forms work better than others.

Data set [2] has as its system plasma extracellular superoxide dismutase. The settings on record: rats fed the copper at adequate level for 6 weeks, unpaired t-test P<0.01. An excerpt:
FIG. 4. Comparison of adequate copper intake as sulfate or glycinate for effects on plasma extracellular superoxide dismutase activities in rats. Rats were fed the copper for 6 weeks. […] Values are means±SD in activity units/ml.
Copper is another important cofactor for metalloenzymes, and is a second necessary cofactor for superoxide dismutase.

The conditions of data set [3]: 60 mg/day zinc for 6 weeks.
Description: Plasma zinc (μg/ml) response to zinc supplementation as gluconate (GLUC) or glycinate chelate (CHE). Young adult females were given 60 mg/day zinc for 6 weeks.
The conditions of data set [4]: one dose of zinc, blood samples at 0-4 hours, n=12, ANOVA+Tukey p<0.05. Here is the method: FIG. 2. Relative zinc absorption from three different forms of zinc. Subjects (n=12) were given one dose of zinc with blood samples taken at 0, 1, 2, 3, and 4 hours. Erythrocyte (red blood cell) zinc was analyzed for each time point with area under the curve used as a measure of relative absorption. The order of the different forms of zinc was randomly determined for each subject. A washout of at least 2 weeks occurred between testings of the different forms of zinc. Values are means±SD.
Zinc is important in maintaining the health of an eye's retina and is an essential part of more than 100 enzymes involved in digestion, metabolism, reproduction, and wound healing. […] (FIG. 3).

As to `COC1=C(OC)C(=O)C(C/C=C(\C)CC/C=C(\C)CC/C=C(\C)CC/C=C(\C)CC/C=C(\C)CC/C=C(\C)CC/C=C(\C)CC/C=C(\C)CC/C=C(\C)CCC=C(C)C)=C(C)C1=O` [Coenzyme Q], the “serum vitamin C (μg/ml), post-values vs pre-values” in data set [1] (coenzyme Q for 2 weeks, N=12, paired t-test P<0.001) is listed as “significantly different from pre-values”. In addition, the “plasma concentrations of active vitamin C” value in data set [1] (well-absorbed form of coenzyme Q, FIG. 1) is “greatly increase plasma concentrations of active vitamin C”.

Regarding `NCC(=O)[O-].NCC(=O)[O-].[Cu+2]` [copper glycinate], the “plasma extracellular superoxide dismutase activities (activity units/ml)” value was “higher activities of a plasma copper enzyme than copper sulfate” in data set [2] and “significantly different from sulfate values” in data set [2] (listed as Glycinate).

As for `NCC(=O)[O-].NCC(=O)[O-].[Zn+2]` [zinc glycinate], the “plasma zinc (μg/ml), post treatment vs pre-treatment” value in data set [3] is reported as “significantly different from pre-treatment”. Also, the “relative zinc absorption (erythrocyte zinc area under the curve)” value in data set [4] is recorded as “better absorbed than zinc oxide”; in data set [4] (listed as Zinc chelate), “differed from the other two groups”.

In the case of zinc gluconate [reference compound], the “plasma zinc (μg/ml), post treatment vs pre-treatment” value in data set [3] is “statistically significant decrease”.
